Experiments:
IKZF1 = biological target: T1, IKZF1 (Homo sapiens, UniProt Q13422+Q96SW2); assay: Western-blot assay of substrate protein degradation in hPBMCs, IKZF1; assay type: cell-based; details: 24 hours of compound treatment, compounds tested at 50 nM and 500 nM (concentration of the table not stated)
T1 construct: endogenous in cells; host or cells: hPBMCs (Milecell Biotechnologies)

NCI-H1975 = assay: Tumor cell proliferation inhibition (CellTiter-Meiluncell Luminescent Cell Viability Assay), NCI-H1975; details: Homo sapiens, NCI-H1975, 96 h, read-out: inhibitory activity (IC50, nM) against tumor cells proliferation, H1975
WEE1 = biological target: T2, WEE1 (Homo sapiens, UniProt P30291+Q96SW2); assay: Western-blot assay of substrate protein degradation in hPBMCs, WEE1; assay type: cell-based; details: 24 hours of compound treatment, compounds tested at 50 nM and 500 nM (concentration of the table not stated)
T2 construct: endogenous in cells; host or cells: hPBMCs (Milecell Biotechnologies)

IKZF3 = biological target: T3, IKZF3 (Homo sapiens, UniProt Q96SW2+Q9UKT9); assay: Western-blot assay of substrate protein degradation in hPBMCs, IKZF3; assay type: cell-based; details: 24 hours of compound treatment, compounds tested at 50 nM and 500 nM (concentration of the table not stated)
T3 construct: endogenous in cells; host or cells: hPBMCs (Milecell Biotechnologies)

[1] = biological target: T4, human Cereblon WT GST-tagged protein (Homo sapiens, UniProt Q96SW2); assay: CRBN-binding affinity by HTRF (CEREBLON BINDING kit); details: HTRF inhibitory activity, CEREBLON BINDING kit; read-out: HTRF IC50
T4 construct: purchased CISBIO 64BDCRBNPEH

[2] = system: Human breast cancer cells (MDA-MB-231); assay: Tumor cell proliferation inhibition (CellTiter-Meiluncell Luminescent Cell Viability Assay), MDA-MB-231; details: MDA-MB-231, 96 h, read-out: inhibitory activity (IC50, nM) against tumor cells proliferation, MDA-MB-231
IKZF2 = biological target: T5, IKZF2 (Homo sapiens, UniProt Q96SW2+Q9UKS7); assay: Western-blot assay of substrate protein degradation in hPBMCs, IKZF2; assay type: cell-based; details: 24 hours of compound treatment, compounds tested at 50 nM and 500 nM (concentration of the table not stated)
T5 construct: endogenous in cells; host or cells: hPBMCs (Milecell Biotechnologies)

[3] = system: Human acute T lymphocytic leukemia cells (Molt-4); assay: Tumor cell proliferation inhibition (CellTiter-Meiluncell Luminescent Cell Viability Assay), Molt-4; details: MOLT-4, 96 h, read-out: inhibitory activity (IC50, nM) against tumor cells proliferation, Molt 4
Procedure: The tumor cells used herein were cultured in a cell culture medium listed in table 2 at 37°C in an incubator with 5% CO2. Prior to experimentation, all cell lines used were correctly identified by STR profiling, and tested negative for mycoplasma contamination using a mycoplasma detection kit through routine screenings.
On the following day, the test compounds of the present disclosure were subjected to serial dilution. […] Subsequently, 0.5 µL of the test compound dilution was transferred into the 96-well plate containing the cells, with each well containing 100 µL of cell culture medium. […] Into the 96-well plate, the diluted test compounds and corresponding detection reagents were added, resulting in final test compound concentrations of 500 nM and 10 nM, respectively. The experimental procedure is described below using the diluted 2 µM test compound as an example.
After the cells were treated with the compounds of the present disclosure for a specified period (the treatment durations were shown in Table 3), the cell viability assay reagent was added to the culture medium according to the kit's instructions to determine cell viability. […] All controls were treated using the same procedure as the compounds of the present disclosure. The growth inhibition curves for the compounds of the present disclosure were plotted using Prism GraphPad software, and the IC50 values were calculated therefrom.

CK1α = biological target: T6, CK1α (Homo sapiens, UniProt P48729+Q96SW2); assay: Western-blot assay of substrate protein degradation in hPBMCs, CK1α; assay type: cell-based; details: 24 hours of compound treatment, compounds tested at 50 nM and 500 nM (concentration of the table not stated)
T6 construct: endogenous in cells; host or cells: hPBMCs (Milecell Biotechnologies)

GSPT1 = biological target: T7, GSPT1 (Homo sapiens, UniProt P15170+Q96SW2); assay: Western-blot assay of substrate protein degradation in hPBMCs, GSPT1; assay type: cell-based; details: 24 hours of compound treatment, compounds tested at 50 nM and 500 nM (concentration of the table not stated)
T7 construct: endogenous in cells; host or cells: hPBMCs (Milecell Biotechnologies)

TMD8 = assay: Tumor cell proliferation inhibition (CellTiter-Meiluncell Luminescent Cell Viability Assay), TMD8; details: Homo sapiens, TMD8, 96 h, read-out: inhibitory activity (IC50, nM) against tumor cells proliferation, TMD8

T4 sequence (Q96SW2 whole entry): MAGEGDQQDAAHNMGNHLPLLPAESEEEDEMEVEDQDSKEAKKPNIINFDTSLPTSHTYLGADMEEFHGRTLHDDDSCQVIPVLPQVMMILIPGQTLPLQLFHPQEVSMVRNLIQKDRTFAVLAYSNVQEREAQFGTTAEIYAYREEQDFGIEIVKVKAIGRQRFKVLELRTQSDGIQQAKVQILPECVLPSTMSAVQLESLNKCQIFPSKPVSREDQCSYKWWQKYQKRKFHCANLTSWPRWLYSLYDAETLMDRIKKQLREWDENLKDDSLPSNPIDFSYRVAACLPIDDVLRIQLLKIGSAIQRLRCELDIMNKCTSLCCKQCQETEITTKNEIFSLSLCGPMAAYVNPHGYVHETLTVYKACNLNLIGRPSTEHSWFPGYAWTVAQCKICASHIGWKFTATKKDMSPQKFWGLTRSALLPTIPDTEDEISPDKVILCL
T1 sequence (Q13422 whole entry): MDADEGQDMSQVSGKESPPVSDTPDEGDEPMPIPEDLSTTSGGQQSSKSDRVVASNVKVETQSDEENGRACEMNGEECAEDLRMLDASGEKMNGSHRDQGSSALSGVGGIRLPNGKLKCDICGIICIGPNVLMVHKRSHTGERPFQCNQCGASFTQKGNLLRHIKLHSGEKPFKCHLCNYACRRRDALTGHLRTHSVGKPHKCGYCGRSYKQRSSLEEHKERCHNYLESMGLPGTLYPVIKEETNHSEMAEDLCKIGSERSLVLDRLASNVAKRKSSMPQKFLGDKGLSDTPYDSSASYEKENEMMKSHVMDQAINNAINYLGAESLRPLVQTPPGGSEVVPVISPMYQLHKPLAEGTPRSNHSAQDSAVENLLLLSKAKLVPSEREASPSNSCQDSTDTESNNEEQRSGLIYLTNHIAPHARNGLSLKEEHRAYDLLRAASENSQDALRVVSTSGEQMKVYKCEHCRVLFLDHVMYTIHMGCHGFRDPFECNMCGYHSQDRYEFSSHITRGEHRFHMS
T1 sequence (Q96SW2 whole entry): as the sequence (Q96SW2 whole entry) above
T1 sequence (Q16531 whole entry partner): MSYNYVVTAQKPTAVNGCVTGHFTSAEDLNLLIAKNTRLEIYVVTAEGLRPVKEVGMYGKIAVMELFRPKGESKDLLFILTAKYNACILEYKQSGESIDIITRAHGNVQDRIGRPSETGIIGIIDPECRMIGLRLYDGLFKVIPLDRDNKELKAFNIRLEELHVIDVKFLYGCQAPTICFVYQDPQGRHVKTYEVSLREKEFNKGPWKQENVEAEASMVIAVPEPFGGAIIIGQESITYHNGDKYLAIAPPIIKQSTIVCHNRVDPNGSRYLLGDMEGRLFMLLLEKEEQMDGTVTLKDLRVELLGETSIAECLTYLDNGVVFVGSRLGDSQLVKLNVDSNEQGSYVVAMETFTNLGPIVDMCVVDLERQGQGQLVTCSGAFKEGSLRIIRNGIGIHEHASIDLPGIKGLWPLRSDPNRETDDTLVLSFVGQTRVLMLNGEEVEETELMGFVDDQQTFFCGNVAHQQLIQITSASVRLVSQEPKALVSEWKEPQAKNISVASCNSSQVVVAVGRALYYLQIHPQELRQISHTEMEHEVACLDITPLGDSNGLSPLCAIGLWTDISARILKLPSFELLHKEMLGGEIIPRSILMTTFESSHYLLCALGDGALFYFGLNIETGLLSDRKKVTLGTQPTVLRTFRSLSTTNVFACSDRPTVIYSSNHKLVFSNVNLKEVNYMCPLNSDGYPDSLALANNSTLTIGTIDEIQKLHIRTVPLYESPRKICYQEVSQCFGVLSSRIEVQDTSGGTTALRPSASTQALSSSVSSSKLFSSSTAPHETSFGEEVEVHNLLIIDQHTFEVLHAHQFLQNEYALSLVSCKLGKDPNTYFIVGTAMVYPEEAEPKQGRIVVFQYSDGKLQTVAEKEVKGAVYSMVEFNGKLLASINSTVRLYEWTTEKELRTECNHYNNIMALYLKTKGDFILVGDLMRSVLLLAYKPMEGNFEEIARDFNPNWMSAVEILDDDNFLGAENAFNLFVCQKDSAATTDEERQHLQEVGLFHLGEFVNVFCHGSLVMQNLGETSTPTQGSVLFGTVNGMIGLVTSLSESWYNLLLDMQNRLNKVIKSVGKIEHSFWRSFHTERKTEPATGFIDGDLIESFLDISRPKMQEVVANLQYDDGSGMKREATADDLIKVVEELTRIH
T5 sequence (Q9UKS7 whole entry): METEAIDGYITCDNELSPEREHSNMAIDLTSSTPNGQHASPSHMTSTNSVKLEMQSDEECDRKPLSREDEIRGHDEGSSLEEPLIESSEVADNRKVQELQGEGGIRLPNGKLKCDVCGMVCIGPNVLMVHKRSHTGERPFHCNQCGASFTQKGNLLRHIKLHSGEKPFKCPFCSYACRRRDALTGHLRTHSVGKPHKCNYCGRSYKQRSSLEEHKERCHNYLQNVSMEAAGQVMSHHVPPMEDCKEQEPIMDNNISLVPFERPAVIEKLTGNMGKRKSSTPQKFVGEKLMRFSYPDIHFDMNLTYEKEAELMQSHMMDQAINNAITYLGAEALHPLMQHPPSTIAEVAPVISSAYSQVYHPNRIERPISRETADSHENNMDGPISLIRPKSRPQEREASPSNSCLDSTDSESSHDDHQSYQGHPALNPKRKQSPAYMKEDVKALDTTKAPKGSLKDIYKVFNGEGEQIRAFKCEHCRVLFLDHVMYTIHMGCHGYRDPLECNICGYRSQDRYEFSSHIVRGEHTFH
T5 sequence (Q96SW2 whole entry): as the sequence (Q96SW2 whole entry) above
T5 sequence (Q16531 whole entry partner): as the sequence (Q16531 whole entry partner) above
T2 sequence (P30291 whole entry): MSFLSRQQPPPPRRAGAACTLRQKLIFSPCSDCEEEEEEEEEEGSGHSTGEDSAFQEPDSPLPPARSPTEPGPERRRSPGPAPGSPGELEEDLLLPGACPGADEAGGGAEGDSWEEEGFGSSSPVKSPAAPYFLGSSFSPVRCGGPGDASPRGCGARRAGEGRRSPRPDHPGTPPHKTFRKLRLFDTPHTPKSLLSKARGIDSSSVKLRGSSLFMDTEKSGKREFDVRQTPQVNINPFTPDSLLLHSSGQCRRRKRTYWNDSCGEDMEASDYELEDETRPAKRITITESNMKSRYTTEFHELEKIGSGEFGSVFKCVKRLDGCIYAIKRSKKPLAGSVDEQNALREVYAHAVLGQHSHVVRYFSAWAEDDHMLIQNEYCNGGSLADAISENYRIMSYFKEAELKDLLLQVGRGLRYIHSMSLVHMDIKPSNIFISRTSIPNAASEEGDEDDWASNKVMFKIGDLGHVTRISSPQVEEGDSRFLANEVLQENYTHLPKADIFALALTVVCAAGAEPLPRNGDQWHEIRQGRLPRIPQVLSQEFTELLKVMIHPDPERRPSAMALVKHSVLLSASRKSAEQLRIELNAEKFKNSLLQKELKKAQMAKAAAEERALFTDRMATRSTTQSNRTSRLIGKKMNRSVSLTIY
T2 sequence (Q96SW2 whole entry): as the sequence (Q96SW2 whole entry) above
T2 sequence (Q16531 whole entry partner): as the sequence (Q16531 whole entry partner) above
T7 sequence (P15170 whole entry): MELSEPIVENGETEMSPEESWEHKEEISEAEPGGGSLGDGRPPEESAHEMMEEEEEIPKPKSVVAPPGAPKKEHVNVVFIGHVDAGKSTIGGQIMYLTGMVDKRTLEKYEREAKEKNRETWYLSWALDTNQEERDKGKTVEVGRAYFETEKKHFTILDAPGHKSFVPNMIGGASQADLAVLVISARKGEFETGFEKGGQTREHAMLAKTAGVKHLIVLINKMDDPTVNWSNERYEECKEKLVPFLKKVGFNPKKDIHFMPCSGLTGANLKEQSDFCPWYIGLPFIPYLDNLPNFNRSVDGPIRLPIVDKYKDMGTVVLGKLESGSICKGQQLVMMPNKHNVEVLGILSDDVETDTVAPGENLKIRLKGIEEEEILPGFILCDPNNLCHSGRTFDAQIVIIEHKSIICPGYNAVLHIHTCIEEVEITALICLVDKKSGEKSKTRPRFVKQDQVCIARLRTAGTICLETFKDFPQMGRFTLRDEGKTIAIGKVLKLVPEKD
T7 sequence (Q96SW2 whole entry): as the sequence (Q96SW2 whole entry) above
T7 sequence (Q16531 whole entry partner): as the sequence (Q16531 whole entry partner) above
T6 sequence (P48729 whole entry): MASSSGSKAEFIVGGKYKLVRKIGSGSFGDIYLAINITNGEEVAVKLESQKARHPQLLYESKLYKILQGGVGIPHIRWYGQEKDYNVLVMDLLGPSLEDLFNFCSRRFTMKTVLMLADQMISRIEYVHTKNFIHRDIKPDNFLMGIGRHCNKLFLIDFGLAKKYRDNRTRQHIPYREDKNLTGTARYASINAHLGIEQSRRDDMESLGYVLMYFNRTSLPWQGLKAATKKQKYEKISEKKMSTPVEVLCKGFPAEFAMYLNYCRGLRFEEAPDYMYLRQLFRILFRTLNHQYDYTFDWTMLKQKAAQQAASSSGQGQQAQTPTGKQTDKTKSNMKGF
T6 sequence (Q96SW2 whole entry): as the sequence (Q96SW2 whole entry) above
T6 sequence (Q16531 whole entry partner): as the sequence (Q16531 whole entry partner) above

O=C1CCC(N2Cc3cc(CN4CCN(c5nccc(Cl)c5Br)CC4)ccc3C2=O)C(=O)N1 (stereo not shown) [GT-04615, 3-(5-((4-(3-bromo-4-chloropyridin-2-yl)piperazin-1-yl)methyl)-1-oxoisoindolin-2-yl)piperidine-2,6-dione] was tested, and the “IKZF 1 substrate protein remaining %” value (IKZF1) was “A (0% ≤ substrate protein remaining % ≤ 80%)”, the IC50 (NCI-H1975) was 100 to 500 nM and the “Weel substrate protein remaining %” value (WEE1) was “A (0% ≤ substrate protein remaining % ≤ 80%)”. For the same compound, the “IKZF3 substrate protein remaining %” value (IKZF3) was “A (0% ≤ substrate protein remaining % ≤ 80%)”, the IC50 [1] was 500 to 1000 nM and the IC50 [2] was 100 to 500 nM. For the same compound, the “IKZF2 substrate protein remaining %” value (IKZF2) was “A (0% ≤ substrate protein remaining % ≤ 80%)”, the IC50 [3] was 10 to 50 nM and the “CK1a substrate protein remaining %” value (CK1α) was “A (0% ≤ substrate protein remaining % ≤ 80%)”. The “GSPT1 substrate protein remaining %” value (GSPT1) was “A (0% ≤ substrate protein remaining % ≤ 80%)” and the IC50 (TMD8) was 500 to 1000 nM.

In the case of O=C1CCC(N2Cc3cc(CN4CC=C(c5ccco5)CC4)ccc3C2=O)C(=O)N1 (stereo not shown) [GT-04617, 3-(5-((4-(furan-2-yl)-3,6-dihydropyridin-1(2H)-yl)methyl)-1-oxoisoindolin-2-yl)piperidine-2,6-dione], the “IKZF 1 substrate protein remaining %” value (IKZF1) is reported as “A (0% ≤ substrate protein remaining % ≤ 80%)”, the IC50 (NCI-H1975) is reported as 100 to 500 nM and the “Weel substrate protein remaining %” value (WEE1) is reported as “A (0% ≤ substrate protein remaining % ≤ 80%)”. The “IKZF3 substrate protein remaining %” value (IKZF3) was “A (0% ≤ substrate protein remaining % ≤ 80%)”, the IC50 [1] was < 500 nM and the IC50 [2] was 10 to 50 nM. The “IKZF2 substrate protein remaining %” value (IKZF2) was “A (0% ≤ substrate protein remaining % ≤ 80%)”, the IC50 [3] was 5 to 10 nM and the “CK1a substrate protein remaining %” value (CK1α) was “B (80%< substrate protein remaining %≤ 100%)”. For the same compound, the “GSPT1 substrate protein remaining %” value (GSPT1) was “A (0% ≤ substrate protein remaining % ≤ 80%)” and the IC50 (TMD8) was 100 to 500 nM.

For O=C1CCC(N2Cc3cc(CN4CC=C(c5cncc(Cl)c5)CC4)ccc3C2=O)C(=O)N1 (stereo not shown) [GT-04620, 3-(5-((5-chloro-3',6'-dihydro-[3,4'-bipyridin]-1'(2'H)-yl)methyl)-1-oxoisoindolin-2-yl)piperidine-2,6-dione], the “IKZF 1 substrate protein remaining %” value (IKZF1) was “A (0% ≤ substrate protein remaining % ≤ 80%)”, the IC50 (NCI-H1975) was 10 to 50 nM and the “Weel substrate protein remaining %” value (WEE1) was “A (0% ≤ substrate protein remaining % ≤ 80%)”. For the same compound, the “IKZF3 substrate protein remaining %” value (IKZF3) was “A (0% ≤ substrate protein remaining % ≤ 80%)”, the IC50 [1] was 500 to 1000 nM and the IC50 [2] was 10 to 50 nM. The “IKZF2 substrate protein remaining %” value (IKZF2) was “A (0% ≤ substrate protein remaining % ≤ 80%)”, the IC50 [3] was 1 to 5 nM and the “CK1a substrate protein remaining %” value (CK1α) was “B (80%< substrate protein remaining %≤ 100%)”. The “GSPT1 substrate protein remaining %” value (GSPT1) was “A (0% ≤ substrate protein remaining % ≤ 80%)” and the IC50 (TMD8) was 10 to 50 nM.

For O=C1CCC(N2Cc3cc(CN4CCC(N5CCc6cc(F)ccc65)CC4)ccc3C2=O)C(=O)N1 (stereo not shown) [GT-04650, 3-(5-((4-(5-fluoroindolin-1-yl)piperidin-1-yl)methyl)-1-oxoisoindolin-2-yl)piperidine-2,6-dione], the “IKZF 1 substrate protein remaining %” value (IKZF1) was “A (0% ≤ substrate protein remaining % ≤ 80%)”, the IC50 (NCI-H1975) was 50 to 100 nM and the “Weel substrate protein remaining %” value (WEE1) was “A (0% ≤ substrate protein remaining % ≤ 80%)”. For the same compound, the “IKZF3 substrate protein remaining %” value (IKZF3) was “A (0% ≤ substrate protein remaining % ≤ 80%)”, the IC50 [1] was < 500 nM and the IC50 [2] was 50 to 100 nM. For the same compound, the “IKZF2 substrate protein remaining %” value (IKZF2) was “A (0% ≤ substrate protein remaining % ≤ 80%)”, the IC50 [3] was 10 to 50 nM and the “CK1a substrate protein remaining %” value (CK1α) was “B (80%< substrate protein remaining %≤ 100%)”. For the same compound, the “GSPT1 substrate protein remaining %” value (GSPT1) was “A (0% ≤ substrate protein remaining % ≤ 80%)” and the IC50 (TMD8) was 100 to 500 nM.

O=C1CCC(N2Cc3cc(CN4CC=C(c5cccc6cnccc56)CC4)ccc3C2=O)C(=O)N1 (stereo not shown) [GT-04666, 3-(5-((4-(isoquinolin-5-yl)-3,6-dihydropyridin-1(2H)-yl)methyl)-1-oxoisoindolin-2-yl)piperidine-2,6-dione] was tested, and the “IKZF 1 substrate protein remaining %” value (IKZF1) was “A (0% ≤ substrate protein remaining % ≤ 80%)”, the IC50 (NCI-H1975) was 10 to 50 nM and the “Weel substrate protein remaining %” value (WEE1) was “A (0% ≤ substrate protein remaining % ≤ 80%)”. The “IKZF3 substrate protein remaining %” value (IKZF3) was “A (0% ≤ substrate protein remaining % ≤ 80%)”, the IC50 [1] was < 500 nM and the IC50 [2] was 5 to 10 nM. The “IKZF2 substrate protein remaining %” value (IKZF2) was “A (0% ≤ substrate protein remaining % ≤ 80%)”, the IC50 [3] was 1 to 5 nM and the “CK1a substrate protein remaining %” value (CK1α) was “A (0% ≤ substrate protein remaining % ≤ 80%)”. For the same compound, the “GSPT1 substrate protein remaining %” value (GSPT1) was “A (0% ≤ substrate protein remaining % ≤ 80%)” and the IC50 (TMD8) was 10 to 50 nM.

With O=C1CCC(N2Cc3cc(CN4CC=C(c5ncccc5F)CC4)ccc3C2=O)C(=O)N1 (stereo not shown) [GT-04689, 3-(5-((3-fluoro-3',6'-dihydro-[2,4'-bipyridin]-1'(2'H)-yl)methyl)-1-oxoisoindolin-2-yl)piperidine-2,6-dione] the “IKZF 1 substrate protein remaining %” value (IKZF1) was “A (0% ≤ substrate protein remaining % ≤ 80%)”, the IC50 (NCI-H1975) was 50 to 100 nM and the “Weel substrate protein remaining %” value (WEE1) was “A (0% ≤ substrate protein remaining % ≤ 80%)”. The “IKZF3 substrate protein remaining %” value (IKZF3) was “A (0% ≤ substrate protein remaining % ≤ 80%)”, the IC50 [1] was < 500 nM and the IC50 [2] was 10 to 50 nM. The “IKZF2 substrate protein remaining %” value (IKZF2) was “A (0% ≤ substrate protein remaining % ≤ 80%)”, the IC50 [3] was 5 to 10 nM and the “CK1a substrate protein remaining %” value (CK1α) was “A (0% ≤ substrate protein remaining % ≤ 80%)”. The “GSPT1 substrate protein remaining %” value (GSPT1) was “A (0% ≤ substrate protein remaining % ≤ 80%)” and the IC50 (TMD8) was 50 to 100 nM.

With O=C1CCC(N2Cc3cc(CN4CCC(c5nccc(Cl)c5Cl)CC4)ccc3C2=O)C(=O)N1 (stereo not shown) [GT-04690, 3-(5-((4-(3,4-dichloropyridin-2-yl)piperidin-1-yl)methyl)-1-oxoisoindolin-2-yl)piperidine-2,6-dione] the “IKZF 1 substrate protein remaining %” value (IKZF1) was “A (0% ≤ substrate protein remaining % ≤ 80%)”, the IC50 (NCI-H1975) was 100 to 500 nM and the “Weel substrate protein remaining %” value (WEE1) was “A (0% ≤ substrate protein remaining % ≤ 80%)”. For the same compound, the “IKZF3 substrate protein remaining %” value (IKZF3) was “A (0% ≤ substrate protein remaining % ≤ 80%)”, the IC50 [1] was 500 to 1000 nM and the IC50 [2] was 50 to 100 nM. For the same compound, the “IKZF2 substrate protein remaining %” value (IKZF2) was “A (0% ≤ substrate protein remaining % ≤ 80%)”, the IC50 [3] was 5 to 10 nM and the “CK1a substrate protein remaining %” value (CK1α) was “A (0% ≤ substrate protein remaining % ≤ 80%)”. For the same compound, the “GSPT1 substrate protein remaining %” value (GSPT1) was “A (0% ≤ substrate protein remaining % ≤ 80%)” and the IC50 (TMD8) was 500 to 1000 nM.

With O=C1CCC(N2Cc3cc(CN4CC=C(c5ncnc6sccc56)CC4)ccc3C2=O)C(=O)N1 (stereo not shown) [GT-04692, 3-(1-oxo-5-((4-(thieno[2,3-d]pyrimidin-4-yl)-3,6-dihydropyridin-1(2H)-yl)methyl)isoindolin-2-yl)piperidine-2,6-dione] the “IKZF 1 substrate protein remaining %” value (IKZF1) was “A (0% ≤ substrate protein remaining % ≤ 80%)”, the IC50 (NCI-H1975) was 50 to 100 nM and the “Weel substrate protein remaining %” value (WEE1) was “A (0% ≤ substrate protein remaining % ≤ 80%)”. The “IKZF3 substrate protein remaining %” value (IKZF3) was “A (0% ≤ substrate protein remaining % ≤ 80%)”, the IC50 [1] was < 500 nM and the IC50 [2] was 10 to 50 nM. The “IKZF2 substrate protein remaining %” value (IKZF2) was “A (0% ≤ substrate protein remaining % ≤ 80%)”, the IC50 [3] was 1 to 5 nM and the “CK1a substrate protein remaining %” value (CK1α) was “A (0% ≤ substrate protein remaining % ≤ 80%)”. The “GSPT1 substrate protein remaining %” value (GSPT1) was “A (0% ≤ substrate protein remaining % ≤ 80%)” and the IC50 (TMD8) was 10 to 50 nM.
